US10889546B2, “Alkynyl pyridine prolyl hydroxylase inhibitor, and preparation method and medical use thereof” (Jiangsu Hengrui Medicine Co., Ltd., priority 2015, dated 2021)
Read-outs that look alike come from different tables or passages of the source.

Key:
[1] = system: EPO; test: EPO expression at the cellular level (EPO kit); format: cell-based; conditions: Hep3B human hepatoma cell, 24 h after administration
Procedure: (§1) The test of the activity of some compounds of the present invention on VEGF at the cellular level and EPO at the cellular level is shown as follows. The method is in accordance with Bioorganic & Medicinal Chemistry Letters 23 (2013) 5953-5957, and the test was carried out by using VEGF and EPO kit respectively 24 h after administration.
(§2) Hep3B Cell: Human Hepatoma Cell

[2] = system: HIF-α; test: Western-blot test of HIF-α level in cells; format: cell-based, human; conditions: Hep3B cell, 50 μM, 250 μM, 24 hours after administration
Procedure: At the same time, Western-blot test at the cellular level was also carried out for some of the compounds of the present invention.
FIG. 1 is the results of Western-blot test of some compounds at the cellular level (Hep3B cell: human hepatoma cell; the compound concentration: 50 μM, 250 μM, 24 hours after administration)

[3] = system: VEGF; test: VEGF expression at the cellular level (VEGF kit); format: cell-based; conditions: Hep3B human hepatoma cell, 24 h after administration
Procedure: as §1, §2

[4] = system: EPO; test: EPO level at the animal level (EPO kit); format: in vivo; conditions: C57Bl/6 mice, male, 8-9 weeks old; 50 μM; 24 h / 4 h after administration
Procedure: (§3) The test of the activity of some compounds of the present invention on VEGF at the animal level and EPO at the cellular level is shown as follows. The method is in accordance with Journal of Medicinal Chemistry 55 (2012) 2945-2959, and the test was carried out by using VEGF and EPO kit respectively 4 h after administration.

[5] = system: VEGF; test: VEGF level at the animal level (VEGF kit); format: in vivo; conditions: C57Bl/6 mice, male, 8-9 weeks old; 50 μM; 24 h / 4 h after administration
Procedure: as §3

[6] = biological target: Prolyl hydroxylase 2 (Homo sapiens (Human), UniProt Q9GZT9); test: Prolyl hydroxylase 2 inhibition, fluorescence polarization method; format: biochemical
[7] = Table 2 comparison, same test method, same batch, read-out: Prolyl hydroxylase 2 (IC50 nM), example compounds of the present invention
[8] = fluorescence polarization, read 1 h after adding the drugs, read-out: Prolyl hydroxylase 2 (IC50 nM)

Sequence of Prolyl hydroxylase 2 (Q9GZT9 whole entry): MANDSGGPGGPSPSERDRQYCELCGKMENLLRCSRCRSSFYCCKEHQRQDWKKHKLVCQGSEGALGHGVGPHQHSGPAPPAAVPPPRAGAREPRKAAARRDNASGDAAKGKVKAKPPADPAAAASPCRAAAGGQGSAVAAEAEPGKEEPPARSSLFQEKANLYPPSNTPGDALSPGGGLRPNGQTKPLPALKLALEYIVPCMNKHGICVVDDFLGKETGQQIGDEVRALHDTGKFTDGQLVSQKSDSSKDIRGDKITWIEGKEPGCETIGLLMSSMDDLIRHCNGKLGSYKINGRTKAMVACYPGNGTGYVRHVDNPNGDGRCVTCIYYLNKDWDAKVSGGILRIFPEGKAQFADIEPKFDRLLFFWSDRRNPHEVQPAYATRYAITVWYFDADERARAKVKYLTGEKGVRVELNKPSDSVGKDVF

Row | SMILES | Whether it can increase the expression of EPO in cells [1] | Whether it can increase the level of HIF-α in cells [2] | Whether it can increase the expression of VEGF in cells [3] | increased level of EPO at the animal level (FIG. 2) [4] | increased level of VEGF at the animal level (FIG. 2) [5] | IC50 [6, 7] | IC50 [6, 8]
1 | Cc1cccc(C#Cc2cnc(C(=O)NCC(=O)O)c(O)c2)c1 [Example 14, 2-(3-Hydroxy-5-m-methylphenylethynyl)picolinamido acetic acid] | Yes | Yes | Yes | increased level | increased level |  | 
2 | O=C(O)CNC(=O)c1ncc(C#Cc2ccc(F)cc2)cc1O [Example 15, 2-(3-Hydroxy-5-p-fluorophenylethynyl)picolinamido acetic acid] | Yes | Yes | Yes | increased level | increased level |  | 
3 | O=C(O)CNC(=O)c1ncc(C#CCOc2ccccc2)cc1O [Example 33, 2-(3-Hydroxy-5-(3-phenoxypropyn-1-yl))picolinamido acetic acid] | Yes |  | Yes |  |  | 169.5 ± 0.5 nM | 169.5 ± 0.5 nM
4 | Cc1ccc(OCC#Cc2cnc(C(=O)NCC(=O)O)c(O)c2)cc1 [Example 34, 2-(3-Hydroxy-5-(3-p-tolyloxypropyn-1-yl))picolinamido acetic acid] | Yes | Yes | Yes |  |  |  | 110 ± 22 nM
5 | Cc1ccccc1OCC#Cc1cnc(C(=O)NCC(=O)O)c(O)c1 [Example 35] | Yes |  | Yes |  |  |  | 70.4 ± 0.6 nM
6 | CCc1ccc(OCC#Cc2cnc(C(=O)NCC(=O)O)c(O)c2)cc1 [Example 36] | Yes |  | Yes |  |  |  | 378 ± 33.3 nM
7 | Cc1cccc(OCC#Cc2cnc(C(=O)NCC(=O)O)c(O)c2)c1C [Example 38, 2-(3-Hydroxy-5-(3-(2,3-dimethylphenyl)oxypropyn-1-yl))picolinamido acetic acid] | Yes | Yes | Yes |  |  |  | 
8 | O=C(O)CNC(=O)c1ncc(C#CCOc2ccc(Cl)cc2)cc1O [Example 44, 2-(3-Hydroxy-5-(3-p-chlorophenoxypropyn-1-yl))picolinamido acetic acid] | Yes | Yes | Yes |  |  | 13.7 ± 1.1 nM | 13.7 ± 1.1 nM
9 | O=C(O)CNC(=O)c1ncc(C#CCOc2ccccc2Cl)cc1O [Example 45, 2-(3-Hydroxy-5-(3-o-chlorophenoxypropyn-1-yl))picolinamido acetic acid] | Yes |  | Yes |  |  |  | 175 ± 2.3 nM
10 | O=C(O)CNC(=O)c1ncc(C#CCOc2cccc(Cl)c2)cc1O [Example 46, 2-(3-Hydroxy-5-(3-m-chlorophenoxypropyn-1-yl))picolinamido acetic acid] | Yes |  | Yes |  |  |  | 102 ± 5 nM
11 | O=C(O)CNC(=O)c1ncc(C#CCOc2ccc(F)cc2)cc1O [Example 47, 2-(3-Hydroxy-5-(3-p-fluorophenoxypropyn-1-yl))picolinamido acetic acid] | Yes |  | Yes | increased level | increased level |  | 187 ± 8.3 nM
12 | O=C(O)CNC(=O)c1ncc(C#CCOc2ccc(-c3ccccc3)cc2)cc1O [Example 57, 2-(3-Hydroxy-5-(3-p-phenylphenoxypropyn-1-yl))picolinamido acetic acid] | Yes |  | Yes |  |  |  | 540 ± 3.6 nM
13 | O=C(O)CNC(=O)c1ncc(C#CCNc2ccccc2)cc1O [Example 64, 2-(3-Hydroxy-5-(3-anilinopropyn-1-yl))picolinamido acetic acid] | Yes |  | Yes |  |  |  | 326.5 ± 0.8 nM
14 | O=C(O)CNC(=O)c1ncc(C#CCNc2ccc(Cl)cc2)cc1O [Example 65] | Yes | Yes | Yes |  |  |  | 
15 | Cc1nc(C(=O)NCC(=O)O)c(O)c2ccc(Oc3ccccc3)cc12 [FG-4592, reference compound] | Yes |  | Yes | increased level | increased level |  | 
